Source: patent publication US20180319810A1, “SUBSTITUTED BRIDGED UREA ANALOGS AS SIRTUIN MODULATORS” (GlaxoSmithKline Intellectual Property (No.2) Limited, priority 2014, published 2018)

Target: T1, SIRT1 (Homo sapiens, UniProt Q96EB6)
T1 sequence (Q96EB6 1-747): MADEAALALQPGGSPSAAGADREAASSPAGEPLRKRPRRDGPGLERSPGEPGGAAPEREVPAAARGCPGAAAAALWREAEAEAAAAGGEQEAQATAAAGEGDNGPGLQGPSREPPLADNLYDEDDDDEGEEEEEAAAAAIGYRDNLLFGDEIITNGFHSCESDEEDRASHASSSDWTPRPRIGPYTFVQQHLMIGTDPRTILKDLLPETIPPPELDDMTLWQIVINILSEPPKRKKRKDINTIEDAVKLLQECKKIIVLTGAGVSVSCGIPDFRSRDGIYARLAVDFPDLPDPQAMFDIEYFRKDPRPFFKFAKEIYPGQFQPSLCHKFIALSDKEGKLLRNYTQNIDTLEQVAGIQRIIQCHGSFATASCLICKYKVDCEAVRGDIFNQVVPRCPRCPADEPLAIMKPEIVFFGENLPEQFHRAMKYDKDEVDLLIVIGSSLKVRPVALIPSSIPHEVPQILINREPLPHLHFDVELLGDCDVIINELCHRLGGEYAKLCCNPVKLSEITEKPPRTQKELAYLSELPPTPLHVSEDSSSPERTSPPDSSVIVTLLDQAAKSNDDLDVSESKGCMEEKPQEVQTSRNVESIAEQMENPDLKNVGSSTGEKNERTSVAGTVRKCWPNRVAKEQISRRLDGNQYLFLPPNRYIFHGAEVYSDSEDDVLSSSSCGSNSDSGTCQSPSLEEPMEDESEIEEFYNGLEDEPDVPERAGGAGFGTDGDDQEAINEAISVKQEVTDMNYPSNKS
Experiment: Trp mass spectrometry assay of SIRT1 activation
Format: biochemical
Details: Trp peptide Ac-R-H-K-K(Ac)-W-NH2 0.5 μM, 120 μM βNAD+, 10 nM SIRT1, 25 min, 25° C.

TRP Activity (EC1.5, concentration of compound required to increase SIRT1 activity by 50% over control)	TRP MAX RESP (percent maximum fold activation relative to control)	SMILES
B (EC1.5 1-25 μM)	A (Fold activation ≥150%)	O=C(Nc1cnc(OC[C@@H](O)CO)cn1)N1c2nc(-c3cccc(C(F)(F)F)c3)ncc2N2CC[C@H]1C2 [Example 23, (8S)—N-(5-((S)-2,3-dihydroxypropoxy)pyrazin-2-yl)-2-(3-(trifluoromethyl)phenyl)-7,8-dihydro-5,8-methanopyrimido[4,5-b][1,4]diazepine-9(6H)-carboxamide]
B (EC1.5 1-25 μM)		Cc1cc(-c2ncc3c(n2)N(C(=O)Nc2ccccn2)[C@H]2CCN3C2)ccn1 [Example 8, (8S)-2-(2-methylpyridin-4-yl)-N-(pyridin-2-yl)-7,8-dihydro-5,8-methanopyrimido[4,5-b][1,4]diazepine-9(6H)-carboxamide]
A (EC1.5<1 μM)	A (Fold activation ≥150%)	Cc1nc(-c2cccc(C(F)(F)F)c2)nc2c1N1CCC[C@@H](C1)N2C(=O)Nc1cncc(OC[C@@H](O)CO)c1 [Example 109, (9S)—N-(5-((S)-2,3-dihydroxypropoxy)pyridin-3-yl)-4-methyl-2-(3-(trifluoromethyl)phenyl)-8,9-dihydro-6H-5,9-methanopyrimido[4,5-b][1,4]diazocine-10(7H)-carboxamide]
B (EC1.5 1-25 μM)	A (Fold activation ≥150%)	O=C(Nc1cncc(OC[C@@H](O)CO)n1)N1c2nc(-c3cccc(C(F)(F)F)c3)ncc2N2CC[C@H]1C2 [Example 50, (8S)—N-(6-((S)-2,3-dihydroxypropoxy)pyrazin-2-yl)-2-(3-(trifluoromethyl)phenyl)-7,8-dihydro-5,8-methanopyrimido[4,5-b][1,4]diazepine-9(6H)-carboxamide]
A (EC1.5<1 μM)	A (Fold activation ≥150%)	O=C(Nc1ccnc(OC[C@@H](O)CO)c1)N1c2nc(-c3cccc(C(F)(F)F)c3)ncc2N2CCC[C@H]1C2 [Example 85, (9S)—N-(2-((S)-2,3-dihydroxypropoxy)pyridin-4-yl)-2-(3-(trifluoromethyl)phenyl)-8,9-dihydro-6H-5,9-methanopyrimido[4,5-b][1,4]diazocine-10(7H)-carboxamide]
A (EC1.5<1 μM)	A (Fold activation ≥150%)	Cc1nc(-c2cccc(C(F)(F)F)c2)nc2c1N1CCC[C@@H](C1)N2C(=O)Nc1ccc(OC[C@H](O)CO)cn1 [Example 113, (9S)—N-(5-((R)-2,3-dihydroxypropoxy)pyridin-2-yl)-4-methyl-2-(3-(trifluoromethyl)phenyl)-8,9-dihydro-6H-5,9-methanopyrimido[4,5-b][1,4]diazocine-10(7H)-carboxamide]
B (EC1.5 1-25 μM)	A (Fold activation ≥150%)	Cc1ccc2c(NC(=O)N3c4nc(C(=O)NC(CO)C(F)(F)F)ncc4N4CCC[C@H]3C4)n[nH]c2n1 (single isomer, unassigned) [Example 68]
A (EC1.5<1 μM)	A (Fold activation ≥150%)	CCNC(=O)N1c2nc(-c3cccc(C(F)(F)F)c3)ncc2N2CC[C@H]1C2.Cl [Example 21, (8S)—N-ethyl-2-(3-(trifluoromethyl)phenyl)-7,8-dihydro-5,8-methano pyrimido[4,5-b][1,4]diazepine-9(6H)-carboxamide, Hydrochloride]
A (EC1.5<1 μM)	A (Fold activation ≥150%)	Cc1nc(-c2cccc(C(F)(F)F)c2)nc2c1N1CCC[C@@H](C1)N2C(=O)Nc1nccc(OC[C@H](O)CO)n1 [Example 111, (9S)—N-(4-((R)-2,3-dihydroxypropoxy)pyrimidin-2-yl)-4-methyl-2-(3-(trifluoromethyl)phenyl)-8,9-dihydro-6H-5,9-methanopyrimido[4,5-b][1,4]diazocine-10(7H)-carboxamide]
B (EC1.5 1-25 μM)		CN(C)c1ccc(-c2ncc3c(n2)N(C(=O)Nc2ccccn2)[C@H]2CCN3C2)cn1 [Example 9, (8S)-2-(6-(dimethylamino)pyridin-3-yl)-N-(pyridin-2-yl)-7,8-dihydro-5,8-methanopyrimido[4,5-b][1,4]diazepine-9(6H)-carboxamide]
B (EC1.5 1-25 μM)	A (Fold activation ≥150%)	O=C(Nc1ccnc(OC[C@@H](O)CO)n1)N1c2nc(-c3cccc(C(F)(F)F)c3)ncc2N2CC[C@H]1C2 [Example 17, (8S)—N-(2-((S)-2,3-dihydroxypropoxy)pyrimidin-4-yl)-2-(3-(trifluoromethyl)phenyl)-7,8-dihydro-5,8-methanopyrimido[4,5-b][1,4]diazepine-9(6H)-carboxamide]
B (EC1.5 1-25 μM)	A (Fold activation ≥150%)	O=C(Nc1nccc(OC[C@@H](O)CO)n1)N1c2nc(-c3cccc(C(F)(F)F)c3)ncc2N2CC[C@H]1C2 [Example 51, (8S)—N-(4-((S)-2,3-dihydroxypropoxy)pyrimidin-2-yl)-2-(3-(trifluoromethyl)phenyl)-7,8-dihydro-5,8-methanopyrimido[4,5-b][1,4]diazepine-9(6H)-carboxamide]
A (EC1.5<1 μM)	A (Fold activation ≥150%)	Cc1nc(-c2cccc(C(F)(F)F)c2)nc2c1N1CC[C@@H](C1)N2C(=O)Nc1cncc(OC[C@H](O)CO)c1 [Example 45, (8S)—N-(5-((R)-2,3-dihydroxypropoxy)pyridin-3-yl)-4-methyl-2-(3-(trifluoromethyl)phenyl)-7,8-dihydro-5,8-methanopyrimido[4,5-b][1,4]diazepine-9(6H)-carboxamide]
B (EC1.5 1-25 μM)	A (Fold activation ≥150%)	O=C(Nc1ccnc(OC[C@H](O)CO)n1)N1c2nc(-c3cccc(C(F)(F)F)c3)ncc2N2CC[C@H]1C2 [Example 28, (8S)—N-(2-((R)-2,3-dihydroxypropoxy)pyrimidin-4-yl)-2-(3-(trifluoromethyl)phenyl)-7,8-dihydro-5,8-methanopyrimido[4,5-b][1,4]diazepine-9(6H)-carboxamide]
A (EC1.5<1 μM)		O=C(Nc1ccccn1)N1c2nc(-c3cccc(C(F)(F)F)c3)ncc2N2CCC[C@H]1C2 [Example 86, (9S)—N-(pyridin-2-yl)-2-(3-(trifluoromethyl)phenyl)-8,9-dihydro-6H-5,9-methanopyrimido[4,5-b][1,4]diazocine-10(7H)-carboxamide]
A (EC1.5<1 μM)	A (Fold activation ≥150%)	O=C(Nc1cccc(OC[C@@H](O)CO)n1)N1c2nc(-c3cccc(C(F)(F)F)c3)ncc2N2CC[C@H]1C2 [Example 31, (8S)—N-(6-((S)-2,3-dihydroxypropoxy)pyridin-2-yl)-2-(3-(trifluoromethyl)phenyl)-7,8-dihydro-5,8-methanopyrimido[4,5-b][1,4]diazepine-9(6H)-carboxamide]
A (EC1.5<1 μM)	A (Fold activation ≥150%)	C[C@@H](NC(=O)c1ncc2c(n1)N(C(=O)Nc1ccc(OC[C@@H](O)CO)cn1)[C@H]1CCCN2C1)C(F)(F)F [Example 119, (9S)—N10-(5-((S)-2,3-dihydroxypropoxy)pyridin-2-yl)-N2-((R)-1,1,1-trifluoropropan-2-yl)-8,9-dihydro-6H-5,9-methanopyrimido[4,5-b][1,4]diazocine-2,10(7H)-dicarboxamide]
A (EC1.5<1 μM)	A (Fold activation ≥150%)	O=C(Nc1cnc(OC[C@@H](O)CO)nc1)N1c2nc(-c3cccc(C(F)(F)F)c3)ncc2N2CCC[C@H]1C2 [Example 102, (9S)—N-(2-((S)-2,3-dihydroxypropoxy)pyrimidin-5-yl)-2-(3-(trifluoromethyl)phenyl)-8,9-dihydro-6H-5,9-methanopyrimido[4,5-b][1,4]diazocine-10(7H)-carboxamide]
